Like-named read-outs stand apart in the source and are kept apart here.
Key:
MV-4-11 (leukemia) = assay: Cell cytotoxicity assay (CellTiter-Glo), MV-4-11; format: cell-based; details: Homo sapiens, cell viability
Method: Cancer cell lines, MV-4-11 (leukemia), P116.c139 (acute T cell leukemia) and D1.1 (acute T cell leukemia), were purchased from ATCC and cultured according to supplier's recommendations. K562 cells (myelogenous leukemia) over-expressing eIF4E, were also used for the cytotoxicity assay. For cells treated for 48 hours, 5000 cells were seeded in 70 μl of growth medium in black, flat-bottom 96-well plate. For cells treated for six days, 1000 cells were seeded in 70 μl of growth medium in black, flat-bottom 96-well plate. […] 50 μl of the diluted compounds was added to the cells and incubated at 37° C. in 5% CO2. After 48 hours or six days treatment, cell viability was determined by CellTiter-Glo Luminescent Cell Viability Assay (Promega, Madison, Wis.). 120 μl of the reagent was added to the cells and luminescence was measured using Tecan Safire Reader. Data was analysed with Graphpad Prism software and the figures represented indicate the half maximal inhibitory concentration (IC50). Error bars denote standard deviation (SD).

[1] = tested on: nuclear active beta-catenin in BC-CML primary cells; assay: Immunofluorescence of nuclear active beta-catenin in BC-CML primary cells; format: cell-based, human
Text: Cord Blood (CB) samples were purchased from the Singapore Cord Blood bank. CML samples were the Singapore General Hospital after signed informed consent under local IRB-approved procedures. MNCs were obtained using Ficoll separation, and CD34^+ cells selected by immunomagnetic beads (Miltenyi Biotech, Germany).
Cells (1×10^5) were cytospun onto glass slides, fixed with 4% paraformaldehye, and stained with mouse monoclonal antibodies against activated β-catenin (clone 8E7, Millipore, UK), or rabbit monoclonal antibodies against phospho-eIF4E S209 (EP2151Y, Abcam, UK). Slides were then stained with either PE-conjugated anti-mouse or FITC-conjugated anti-rabbit antibodies. Images were obtained with the use of a fluorescence microscope (Olympus IX71S1F3) at 40× magnification.

[2] = tested on: eIF4E phosphorylation in cerebellar neurons in brain sections; assay: Immunoblot of phospho-eIF4E in mouse cerebellar brain slices; details: 40 μM CGP57380 or 50 nM ETC7168 for 45 mins
Method: For biochemical analyses mice were sacrificed by CO2 inhalation, the cerebellum dissected and rapidly placed in a vibratome chamber and sectioned at 300 μm in cold oxygenated aCSF (in mM: 125 NaCl, 2.5 KCl, 1 MgCl2, 2 CaCl2, 1.25 NaH2PO4, 20 Glucose, 26 NaHCO3, 95% O2/5% CO2). Slices obtained were maintained at 33° C. in oxygenated aCSF and treated with 40 μM CGP57380 or 50 nM ETC7168 for 45 mins and tissues were subsequently snap frozen in liquid nitrogen. Tissues were lysed in 25 mM Tris-HCl, 150 mM NaCl, 1% Triton, 0.2% SDS, 5 mM EDTA, 2 mM DTT, 1 mM NaF, 1 mM Na3VO4 containing protease inhibitor cocktail. The soluble fractions were analyzed by immunoblotting with primary antibodies for 24 hrs at 4° C. followed by detection with secondary antibodies for enhanced chemoluminescent detection. […] Behavioral testing was performed using a well-accepted test for autism that consists of quantitative analysis of ultrasonic vocalizations emitted by male mice exposed to females in estrous^75. […] Prior to testing, the estrous cycle of each female mouse was assessed and only females in estrous were kept for testing. […] Subsequently a female in estrous was introduced in the arena, and ultrasonic vocalizations were recorded for 3 min using the Avisoft system (Avisoft Bioacoustics) with a frequency bandwidth of 30 kHz to 100 kHz. The number and length of ultrasonic vocalizations were quantified. […]

[3] = tested on: eIF4G levels in brain sections from Nlgn3 knock-out mice; assay: Immunoblot of eIF4G in brain slices of Nlgn3 knock-out mice; design: species or system mouse; details: 40 μM CGP57380 or 50 nM ETC7168
Method: For biochemical analyses mice were sacrificed by CO2 inhalation, the cerebellum dissected and rapidly placed in a vibratome chamber and sectioned at 300 μm in cold oxygenated aCSF (in mM: 125 NaCl, 2.5 KCl, 1 MgCl2, 2 CaCl2, 1.25 NaH2PO4, 20 Glucose, 26 NaHCO3, 95% O2/5% CO2). Slices obtained were maintained at 33° C. in oxygenated aCSF and treated with 40 μM CGP57380 or 50 nM ETC7168 for 45 mins and tissues were subsequently snap frozen in liquid nitrogen. Tissues were lysed in 25 mM Tris-HCl, 150 mM NaCl, 1% Triton, 0.2% SDS, 5 mM EDTA, 2 mM DTT, 1 mM NaF, 1 mM Na3VO4 containing protease inhibitor cocktail. The soluble fractions were analyzed by immunoblotting with primary antibodies for 24 hrs at 4° C. followed by detection with secondary antibodies for enhanced chemoluminescent detection. Impact of MNK inhibitors on autism-related behavior was tested in a knock-out mouse model for autism. Nlgn3 knock-out mouse model a human mutation identified in patients with autism^73-74. Compounds were applied in DMSO using intraperitoneal injection in adult male mice (2-4 months of age). Two injections were performed, the first 30 h and a second one 5 h before testing. Behavioral testing was performed using a well-accepted test for autism that consists of quantitative analysis of ultrasonic vocalizations emitted by male mice exposed to females in estrous^75. The apparatus consisted of an arena (40 cm×20 cm) surrounded by 30-cm-high walls made of grey plastic and equipped with a microphone and a video camera. Prior to testing, the estrous cycle of each female mouse was assessed and only females in estrous were kept for testing. Male mice were acclimatized for 3 min in the chamber. Subsequently a female in estrous was introduced in the arena, and ultrasonic vocalizations were recorded for 3 min using the Avisoft system (Avisoft Bioacoustics) with a frequency bandwidth of 30 kHz to 100 kHz. The number and length of ultrasonic vocalizations were quantified. All animal experiments were approved by the cantonal veterinary office Basel-Stadt, Switzerland.

N#Cc1ccc(-c2cnc3ccc(-c4ccc(C(=O)N5CCOCC5)cc4)nn23)cc1 [Example 62, 4-(6-(4-(morpholine-4-carbonyl)phenyl)imidazo[1,2-b]pyridazin-3-yl)benzonitrile]
IC50 (MV-4-11 (leukemia); MV4-11, 144 h, 6 days, read-out: IC50 after 6 days of treatment, MV-4-11): 200 nM | IC50 (MV-4-11 (leukemia); MV4-11, 48 hours, read-out: IC50 after 48 hours of treatment, MV-4-11): 800 nM | nuclear active beta-catenin in BC-CML primary cells, immunofluorescence [1]: decrease in nuclear beta-catenin accumulation | eIF4E phosphorylation in cerebellar brain sections [2]: inhibit eIF4E phosphorylation | eIF4G levels in brain sections from Nlgn3 knock-out mice [3]: elevated eIF4G levels | eIF4G levels in brain sections from Nlgn3 knock-out mice ([3]; listed as ECT7168): elevation in eIF4G levels

Source: patent US20190211020A1 (Agency for Science, Technology and Research, priority 2012, published 2019)
